From the NIST ThermoML archive (doi:10.1021/je060271a)

Details: 303.15 K, Liquid, Vibrating tube method

CCCCC(=O)OCC(COC(=O)CCCC)(COC(=O)CCCC)COC(=O)CCCC [pentaerythritol tetrapentanoate]
Details	mass density [kg/m3]
4917.5 kPa	1014
4937.6 kPa	1014
4960.8 kPa	1014
4980.3 kPa	1014.2
5000.8 kPa	1014.1
5025.3 kPa	1014.2
5046.6 kPa	1014.1
5067.7 kPa	1014.1
5090.5 kPa	1014.1
5111.3 kPa	1014.1
5136.1 kPa	1014.1
5153.9 kPa	1014.2
5159.6 kPa	1014.2
5160.1 kPa	1014.2
5161.3 kPa	1014.2
5164.9 kPa	1014.2
5167.4 kPa	1014.3
5169.1 kPa	1014.2
5170.1 kPa	1014.2
5173.9 kPa	1014.1
5178.6 kPa	1014.2
5179.3 kPa	1014.2
5180.5 kPa	1014.2
5181.4 kPa	1014.2
5181.7 kPa	1014.2
5182.6 kPa	1014.3
5182.9 kPa	1014.3
5183.8 kPa	1014.2
5184.3 kPa	1014.2
5184.7 kPa	1014.2
5185.4 kPa	1014.2
5185.5 kPa	1014.3
5189.7 kPa	1014.1
5199.6 kPa	1014.3
5209.2 kPa	1014.3
5217.7 kPa	1014.2
5223.9 kPa	1014.2
5239.9 kPa	1014.2
5266.9 kPa	1014.4
5289.9 kPa	1014.2
5312.7 kPa	1014.4
5340.7 kPa	1014.1
5364.2 kPa	1014.3
5388.3 kPa	1014.4
5417.9 kPa	1014.3
5443 kPa	1014.4
5468.4 kPa	1014.4
5493.1 kPa	1014.4
5518.4 kPa	1014.5
5548.5 kPa	1014.4
5573.5 kPa	1014.4
5599.8 kPa	1014.5
5631 kPa	1014.4
5657.1 kPa	1014.5
5684.4 kPa	1014.6
5712.8 kPa	1014.5
5747 kPa	1014.4
5774.2 kPa	1014.6
5801.5 kPa	1014.6
5829.1 kPa	1014.6
5862.5 kPa	1014.7
5891.4 kPa	1014.7
5920.4 kPa	1014.8
5955.2 kPa	1014.6
5985.3 kPa	1014.7
6015.3 kPa	1014.7
6045.8 kPa	1014.8
6082.1 kPa	1014.7
6112.3 kPa	1014.8
6149.7 kPa	1014.8
6181.5 kPa	1014.8
6213.5 kPa	1014.9
6246.6 kPa	1014.8
6279.6 kPa	1014.9
6319.4 kPa	1014.9
6353.6 kPa	1015
6388.4 kPa	1014.9
6430.4 kPa	1015
6466 kPa	1014.9
6496.2 kPa	1015
6524.4 kPa	1015.1
6558.6 kPa	1015.1
6587.6 kPa	1015.1
6617.8 kPa	1015.1
6648.1 kPa	1015.2
6678.6 kPa	1015.1
6714 kPa	1015.2
6743.7 kPa	1015.3
6774.5 kPa	1015.2
6811.1 kPa	1015.3
6842.3 kPa	1015.2
6873.4 kPa	1015.3
6911.1 kPa	1015.3
6943.4 kPa	1015.4
6975.7 kPa	1015.2
7008.7 kPa	1015.3
7048.1 kPa	1015.3
7083.3 kPa	1015.5
7119.9 kPa	1015.4
7154.6 kPa	1015.4
7190.2 kPa	1015.4
7232.8 kPa	1015.5
7266.1 kPa	1015.6
7296.5 kPa	1015.5
7326.2 kPa	1015.5
7361.8 kPa	1015.6
7392.7 kPa	1015.6
7425.7 kPa	1015.6
7461.8 kPa	1015.7
7491.3 kPa	1015.7
7529.6 kPa	1015.6
7561.2 kPa	1015.7
7593.6 kPa	1015.8
7626.1 kPa	1015.9
7659.1 kPa	1015.6
7692.2 kPa	1015.8
7732.6 kPa	1015.9
7766.1 kPa	1015.8
7800.6 kPa	1015.9
7835 kPa	1015.7
7876.5 kPa	1015.9
7911.6 kPa	1016
7947.1 kPa	1016
7990.4 kPa	1016
8026.7 kPa	1015.9
8062.9 kPa	1016.1
8107.6 kPa	1016.1
8145.4 kPa	1016.1
8184.2 kPa	1016.2
8222.5 kPa	1016.2
8262.2 kPa	1016.2
8293.2 kPa	1016.2
8323.8 kPa	1016.3
8354.7 kPa	1016.2
8392.8 kPa	1016.3
8424.5 kPa	1016.1
8457.1 kPa	1016.3
8489 kPa	1016.4
8528 kPa	1016.3
8560.4 kPa	1016.4
8593.7 kPa	1016.5
8633.4 kPa	1016.4
8666.8 kPa	1016.3
8707.5 kPa	1016.4
8742.2 kPa	1016.4
8776.3 kPa	1016.6
8818.4 kPa	1016.6
8854.8 kPa	1016.4
8890.8 kPa	1016.5
8920.7 kPa	1016.5
8952.9 kPa	1016.6
8979.8 kPa	1016.7
9013.1 kPa	1016.5
9039.8 kPa	1016.6
9066.8 kPa	1016.6
9100.5 kPa	1016.7
9128.4 kPa	1016.7
9157.4 kPa	1016.6
9191.7 kPa	1016.8
9218.7 kPa	1016.8
9247.2 kPa	1016.8
9281.8 kPa	1016.7
9311.6 kPa	1016.7
9342 kPa	1016.8
9371.6 kPa	1016.9
9407.8 kPa	1016.8
9438.5 kPa	1016.8
9469.3 kPa	1017
9495.9 kPa	1017
9521 kPa	1016.9
9552.9 kPa	1017
9584.8 kPa	1016.9
9608.9 kPa	1017
9634.2 kPa	1017
9666.8 kPa	1017
9688 kPa	1017
9719.7 kPa	1017.1
9746.4 kPa	1017.1
9779.5 kPa	1017.2
9805.7 kPa	1017.2
9831.9 kPa	1017.1
9858.9 kPa	1017.1
9892.2 kPa	1017.1
9921.6 kPa	1017.2
9948 kPa	1017.2
9980.5 kPa	1017.3
10009 kPa	1017.3
10046 kPa	1017.3
10069 kPa	1017.3
10099 kPa	1017.4
10134 kPa	1017.2
10161 kPa	1017.2
10195 kPa	1017.3
10225 kPa	1017.5
10254 kPa	1017.4
10289 kPa	1017.4
10319 kPa	1017.5
10351 kPa	1017.4
10382 kPa	1017.1
10417 kPa	1017.5
10448 kPa	1017.6
10480 kPa	1017.6
10517 kPa	1017.7
10550 kPa	1017.5
10583 kPa	1017.6
10624 kPa	1017.7
10658 kPa	1017.5
10690 kPa	1017.7
10713 kPa	1017.7
10757 kPa	1017.7
10800 kPa	1017.6
10821 kPa	1017.7
10840 kPa	1017.8
10863 kPa	1017.8
10883 kPa	1017.9
10904 kPa	1017.8
10928 kPa	1017.9
10947 kPa	1017.9
10968 kPa	1017.8
10992 kPa	1017.9
11013 kPa	1017.8
11033 kPa	1017.9
11058 kPa	1017.9
11078 kPa	1017.9
11101 kPa	1018
11121 kPa	1018
11147 kPa	1017.9
11168 kPa	1017.9
11191 kPa	1018.1
11213 kPa	1017.9
11234 kPa	1017.9
11255 kPa	1018.1
11281 kPa	1018
11302 kPa	1018
11328 kPa	1018.2
11349 kPa	1018.1
11372 kPa	1018.1
11398 kPa	1018.1
11420 kPa	1018.2
11443 kPa	1018
11469 kPa	1018.2
11491 kPa	1018.1
11513 kPa	1018.1
11541 kPa	1018.2
11564 kPa	1018.2
11586 kPa	1018.3
11612 kPa	1018.2
11635 kPa	1018.2
11658 kPa	1018.3
11688 kPa	1018.3
11710 kPa	1018.2
11734 kPa	1018.2
11758 kPa	1018.4
11785 kPa	1018.3
11809 kPa	1018.3
11838 kPa	1018.4
11862 kPa	1018.4
11884 kPa	1018.5
11909 kPa	1018.4
11938 kPa	1018.6
11963 kPa	1018.4
11988 kPa	1018.5
12014 kPa	1018.5
12044 kPa	1018.5
12069 kPa	1018.5
12095 kPa	1018.5
12120 kPa	1018.5
12148 kPa	1018.6
12173 kPa	1018.6
12205 kPa	1018.5
12229 kPa	1018.7
12254 kPa	1018.5
12285 kPa	1018.7
12312 kPa	1018.6
12338 kPa	1018.6
12366 kPa	1018.7
12391 kPa	1018.8
12423 kPa	1018.7
12449 kPa	1018.7
12476 kPa	1018.7
12508 kPa	1018.8
12536 kPa	1018.8
12562 kPa	1018.8
12596 kPa	1018.8
12621 kPa	1018.8
12649 kPa	1018.8
12682 kPa	1018.8
12710 kPa	1018.8
12740 kPa	1018.9
12766 kPa	1018.9
12798 kPa	1019
12826 kPa	1018.9
12856 kPa	1019
12889 kPa	1019.1
12918 kPa	1019.1
12946 kPa	1019
12980 kPa	1019.1
13009 kPa	1019
13044 kPa	1019.1
13075 kPa	1019.2
13102 kPa	1019.2
13132 kPa	1019.1
13169 kPa	1019.2
13197 kPa	1019.1
13227 kPa	1019.2
13258 kPa	1019.1
13295 kPa	1019.2
13324 kPa	1019.2
13359 kPa	1019.3
13390 kPa	1019.3
13421 kPa	1019.3
13458 kPa	1019.3
13489 kPa	1019.4
13520 kPa	1019.4
13558 kPa	1019.4
13590 kPa	1019.4
13622 kPa	1019.4
13660 kPa	1019.5
13693 kPa	1019.5
13725 kPa	1019.6
